Read-outs that look alike come from different tables or passages of the source.

Data set [1] concerns the target T1, hPCFT (Homo sapiens, UniProt Q96NT5).
T1 sequence (Q96NT5 1-459): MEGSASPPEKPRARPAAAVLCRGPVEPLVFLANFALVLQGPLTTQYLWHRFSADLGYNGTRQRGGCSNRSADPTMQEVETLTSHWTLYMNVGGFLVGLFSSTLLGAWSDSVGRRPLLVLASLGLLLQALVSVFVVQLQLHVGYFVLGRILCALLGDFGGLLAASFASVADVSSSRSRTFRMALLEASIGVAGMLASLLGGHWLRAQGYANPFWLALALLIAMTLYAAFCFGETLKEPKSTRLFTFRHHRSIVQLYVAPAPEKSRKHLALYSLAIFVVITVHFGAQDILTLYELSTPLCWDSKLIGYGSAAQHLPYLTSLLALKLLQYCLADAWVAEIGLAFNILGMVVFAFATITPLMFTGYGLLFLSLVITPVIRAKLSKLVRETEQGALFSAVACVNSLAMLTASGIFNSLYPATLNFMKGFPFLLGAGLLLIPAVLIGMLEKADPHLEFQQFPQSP
Kind of data set: hPCFT transport assays with [3H]MTX in R2/hPCFT4 cells. Format: cell-based. Particulars: 10 µM competitor, 0.5 µM [3H]MTX, pH 5.5 to pH 7.2, R2/hPCFT4 cells.

The subject of another data set is R2/hPCFT4 cells. Description: Nucleoside/AICA protection from growth inhibition. Format: cell-based, Chinese hamster. Particulars: adenosine 60 µM, thymidine 10 µM, AICA 320 µM.
The target of data set [2] is T1, hPCFT. Kind of data set: Electrophysiology, Xenopus oocytes injected with hPCFT cRNA. Format: cell-based. Conditions: 5 µM, pH 5.5, clamped at -90 mV.
The test system of data set [3] is subcutaneous human IGROV1 ovarian tumors. Description: In vivo efficacy trial, IGROV1 xenografts. More on the design: species or system female ICR SCID mice.
The target in a further data set is FRβ (Homo sapiens, UniProt P14207). Particulars: D4 cells, 50 nM [3H]folic acid, folic acid = 1.
Sequence of FRβ (P14207 17-255): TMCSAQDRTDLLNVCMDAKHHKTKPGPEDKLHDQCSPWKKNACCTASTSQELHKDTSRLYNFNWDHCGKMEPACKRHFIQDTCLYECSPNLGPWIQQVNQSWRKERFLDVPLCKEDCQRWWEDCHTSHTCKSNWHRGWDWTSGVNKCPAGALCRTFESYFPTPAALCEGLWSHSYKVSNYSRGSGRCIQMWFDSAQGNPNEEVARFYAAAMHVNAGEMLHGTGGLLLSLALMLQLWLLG
For a further data set, the target named is FRα (Homo sapiens, UniProt P15328). Particulars: RT16 cells, 50 nM [3H]folic acid, folic acid = 1.
Sequence of FRα (P15328 25-257): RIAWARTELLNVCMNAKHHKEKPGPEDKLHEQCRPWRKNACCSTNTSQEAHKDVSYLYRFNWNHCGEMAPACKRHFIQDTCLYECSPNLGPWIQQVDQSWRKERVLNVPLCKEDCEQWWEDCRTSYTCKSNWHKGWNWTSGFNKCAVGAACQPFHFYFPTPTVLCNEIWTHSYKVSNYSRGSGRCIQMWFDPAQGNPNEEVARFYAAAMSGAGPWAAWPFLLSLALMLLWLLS
The next data set has as its system PC43-10 cells (hRFC). Particulars: read-out: IC50 PC43-10; cited from earlier work.
Data set [4] concerns the target T1, hPCFT. Conditions: Lineweaver-Burke plots, ref 14 (Wang et al.), cited from earlier work.

Take `Nc1nc2[nH]c(CCCc3ccc(C(=O)N[C@@H](CCC(=O)O)C(=O)O)s3)cc2c(=O)[nH]1` [Compound 3, N-({5-[(2-amino-4-oxo-4,7-dihydro-3H-pyrrolo[2,3-d]pyrimidin-6-yl)propyl]thiophen-2-yl}carbonyl)-L-glutamic acid]: the “inhibition of hPCFT-mediated [3H]MTX transport” value (from here on “inhibition of hPCFT-mediated”) at hPCFT [1] is “potent and essentially equivalent inhibitors”. Also, the “protection from growth inhibition by nucleosides/AICA” value in the data set with R2/hPCFT4 cells is on record as “abolished by either adenosine or AICA alone”. The substrate-induced current result at hPCFT [2] is “induced currents”. For the same molecule, the “full recovery of body weight, time post last treatment” value in data set [3] (25 mg/kg/inj, folate-deficient diet) is listed as 8 days; in data set [3] (40 mg/kg/inj, folate-deficient diet), 10 days. The host recovery time in data set [3] (folate-deficient diet) is on record as ≤ 10 days. In addition, in data set [3] (standard folate replete diet), the “reversible body weight loss” value is reported as 2.7–5%.
For `Nc1nc2[nH]c(CCc3ccc(C(=O)N[C@@H](CCC(=O)O)C(=O)O)s3)cc2c(=O)[nH]1` [Compound 2, N-({5-[(2-amino-4-oxo-4,7-dihydro-3H-pyrrolo[2,3-d]pyrimidin-6-yl)ethyl]thiophen-2-yl}carbonyl)-L-glutamic acid], the “relative binding affinity for FRβ” value on FRβ was “undetectable”. The “relative binding affinity for FRα” value at FRα is listed as “undetectable”.
As usually defined, the IC50 is the concentration at which inhibition is half-maximal. Turning to `Nc1nc2[nH]c(CCCCc3ccc(C(=O)N[C@@H](CCC(=O)O)C(=O)O)s3)cc2c(=O)[nH]1` [Compound 4], the gross log kill in data set [3] (112.5 mg/kg/injection iv Q4dx5, folate-deficient diet) is given as 1.2. For the same molecule, the IC50 in the data set on PC43-10 cells (hRFC) is > 1000 nM.
What is called Vmax is the top rate of the reaction or transport when substrate is in excess. Consider `CN(Cc1cnc2nc(N)nc(N)c2n1)c1ccc(C(=O)N[C@@H](CCC(=O)O)C(=O)O)cc1` [MTX, methotrexate], for which the Kt is 0.28 ± 0.02 µM on hPCFT [4] (pH 5.5) and 4.52 ± 0.19 µM on hPCFT [4] (pH 6.8). The Vmax on hPCFT [4] (pH 5.5) is recorded as 31.23 ± 4.31 pmol/mg/min; at hPCFT [4] (pH 6.8), 13.72 ± 2.26 pmol/mg/min.
In the case of `Nc1nc(N)c2nc(CNc3ccc(C(=O)N[C@@H](CCCNC(=O)c4ccccc4C(=O)O)C(=O)O)cc3)cnc2n1` [Compound 9, N^α-(4-amino-4-deoxypteroyl)-N^δ-hemiphthaloyl-L-ornithine], the “inhibition of hPCFT-mediated” value on hPCFT [1] was “did not inhibit”.
For the molecule `Nc1nc2[nH]cc(CCc3ccc(C(=O)N[C@@H](CCC(=O)O)C(=O)O)cc3)c2c(=O)[nH]1` [PMX, N-{4-[2-(2-amino-3,4-dihydro-4-oxo-7H-pyrrolo[2,3-d]pyrimidin-5-yl)ethyl]benzoyl}-L-glutamic acid], the “inhibition of hPCFT-mediated” value at hPCFT [1] was “potent and essentially equivalent inhibitors”. In addition, in the data set on R2/hPCFT4 cells, the “protection from growth inhibition by nucleosides/AICA” value is given as “completely reversed by adenosine combined with thymidine”.
For the molecule `Nc1nc2c(c(=O)[nH]1)C[C@@H](CCc1ccc(C(=O)N[C@@H](CCC(=O)O)C(=O)O)cc1)CN2` [LMTX, 5,10-dideaza-5,6,7,8-tetrahydrofolate], the “protection from growth inhibition by nucleosides/AICA” value in the data set with R2/hPCFT4 cells is reported as “abolished by either adenosine or AICA alone”.

The values are drawn from publication PMC3209708 (Journal of medicinal chemistry, 2011).
